What was measured:
[1] = test system: male rats of the CD breeding line; test: Serum testosterone level of rats after chronic dexamethasone treatment with or without RU 38486; type: in vivo, rat; settings: for Serum Testosterone: day 9, average ± standard error
Description: (§1) Sexually mature, 3-month old male rats of the CD breeding line (Charles River GmbH, Sulzfeld, Germany) were kept in groups of 4 animals under controlled illumination (light:darkness 12:12 hours) with free access to food and drinking water. After a 1-week adaptation, the animals were tested by exposure to ovarectomized, estrogen-treated females for the presence of male sexual behavior (G. Dörner, Hormones and brain differentiation, Elsevier, Amsterdam, 1976, pp. 126-132). […] The animals of the reference group received intraperitoneal injections of dexamethasone (Fortecortin: Merck, Darmstadt, Germany) daily according to the following schedule: 0.5 mg/kg on days 1 to 3, 1 mg/kg on days 4 to 6 and 1.5 mg/kg on days 7 to 9. The control animals were injected with placebo (0.9% sterile NaCl solution. In addition to the dexamethasone treatment, the experimental group received subcutaneous injections of the glucocorticoid receptor antagonist RU 38486 (Sigma, Deisenhofen, Germany) in sesame oil solution in a dose of 10 mg/kg daily according to the schedule given above.
(§2) Male sexual behavior was evaluated on the ninth day by the method given above. After the behavior test, blood samples were taken from the retroorbital plexus for determining the serum testosterone level. The testosterone was determined with a commercial test formulation (IBL, Hamburg, Germany).

[2] = test system: primary rat Leydig cells; test: Cell damage: activity of mitochondrial succinate dehydrogenase (WST-1 test) in primary rat Leydig cell cultures; type: cell-based
Description: (§3) Testicular cells were prepared from the testicles of sexually mature, 12-week old, male Wistar rats by means of a collagenase treatment. Leydig cells were obtained from this preparation by a continuous Percoll gradient centrifugation.
(§4) Freshly prepared Leydig cells were sown in microtiter plates in 100 μL of DMEM/F12 with phenol red (20,000) cells/well) with addition of 0.1% BSA, penicillin (100 U/ml) and streptomycin (100 μg/ml). After one hour, the medium was changed with addition of substance. For 18 hours, the Leydig cells were incubated with dexamethasone alone or together with glucocorticoid receptor antagonists (250 μL of DMEM/well with addition of penicillin (100 U/ml) and streptomycin (100 μg/ml)). […] Ethanol was used as solvent for dexamethasone and the glucocorticoid receptor antagonists; the final concentration of the ethanol was not more than 0.2%.
Parallel to the testosterone measurement, cell damage was determined after the 26 hours by measuring the activity of the mitochondrial succinate dehydrogenase (WST-1 test, Böhringer, Mannheim).

[3] = test system: primary rat Leydig cells; test: hCG-stimulated testosterone production in primary rat Leydig cells treated with dexamethasone with or without glucocorticoid receptor antagonist (Elisa); type: cell-based; settings: for Testosterone Production, Average value ± SD (%): hCG alone = 100, basal = 0
Description: as §3, §4
Aliquots of the supernatant were frozen at −70° C. Testosterone was measured with a commercial Elisa (IBL, Hamburg). The standard curve of testosterone Elisa was then adapted to the cell culture conditions.

[4] = test system: male rats of the CD breeding line; test: Male sexual behavior of rats after chronic dexamethasone treatment with or without RU 38486; type: in vivo, rat; settings: for Male Sexual Behavior (Copulations in 5 minutes): day 9, average ± standard error
Description: as §1, §2

[5] = dexamethasone alone i.p. 0.5-1.5 mg/kg daily for 9 days
[6] = hCG 0.5 ng/ml + 100 nM DEX alone
[7] = hCG + 100 nM DEX + glucocorticoid receptor antagonist 1 μm
[8] = hCG 0.5 ng/ml + 100 nM DEX + glucocorticoid receptor antagonist 1 μm
[9] = dexamethasone i.p. 0.5-1.5 mg/kg daily for 9 days + RU 38486 s.c. 10 mg/kg daily
[10] = simultaneous administration of dexamethasone and RU 38486

Structure (SMILES)	Succinate Dehydrogenase Activity, Average value ± SD [2, 7]	Testosterone Production, Average value ± SD [3, 8]	Testosterone Production, Average value ± SD (%) [3, 8]	further results
C[C@@H]1C[C@H]2[C@@H]3CCC4=CC(=O)C=C[C@]4(C)[C@@]3(F)[C@@H](O)C[C@]2(C)[C@@]1(O)C(=O)CO [DEX, dexamethasone]				Serum Testosterone [1, 5]: 2.3 ± 0.2 ng/mL; Effect on mitochondrial succinate dehydrogenase activity (in words) ([2]; dexamethasone 10^-7 M): significant inhibition of the mitochondrial activity; Succinate Dehydrogenase Activity, Average value ± SD [2, 6]: 0.192 ± 0.036 Absorptions Units; Testosterone Production, Average value ± SD [3, 6]: 2.00 ± 0.58P ng/ml; Testosterone Production, Average value ± SD (%) [3, 6]: 44.63 ± 14.08P %; Male Sexual Behavior (Copulations in 5 minutes) [4, 5]: 4.0 ± 0.9 Copulations in 5 minutes
COCC1(OC)CCC2C3CCC4=CC(=O)CCC4=C3C(c3ccc(C(=NO)C(F)(F)F)cc3)CC21C (stereo not drawn) [GRA1, 4-(17β-methoxy-17α-(methoxymethyl)-estra-4,9-diene-3-one-11β-yl]2,2,2-trifluoroacetophenone-1(Z)-oxime]	0.289 ± 0.040 Absorptions Units	3.57 ± 0.83 ng/mL	83.00 ± 20.40%	
C[C@]12C[C@H](c3ccc4c(c3)OCO4)C3=C4CCC(=O)C=C4CC[C@H]3[C@@H]1CC[C@@]2(O)C#Cc1ccc(S(C)(=O)=O)cc1 [GRA2]	0.363 ± 0.032 Absorptions Units	3.48 ± 0.64 ng/mL	80.97 ± 15.47%	
CC12CC(c3ccc(C=NO)cc3)C3=C4CCC(=O)C=C4CCC3C1CCC2(O)C#Cc1ccc(S(C)(=O)=O)cc1 (stereo not drawn) [GRA3, 4-[17β-hydroxy-17α,21-(4′-methylsulfonylphenyl)-19-nor-3-oxopregna-4,9-diene-20-yn-11β-yl]benzaldehyde-1(E)-oxime]	0.313 ± 0.018 Absorptions Units	4.52 ± 1.01 ng/mL	106.30 ± 24.75%	
CC#C[C@]1(O)CC[C@H]2[C@@H]3CCC4=CC(=O)CCC4=C3[C@@H](c3ccc(N(C)C)cc3)C[C@@]21C [RU38486, 11β-dimethylaminophenyl-17β-hydroxy-17α-propinyl-estra-4,9-diene-3-one]	0.311 ± 0.031 Absorptions Units	4.48 ± 1.14 ng/mL	105.23 ± 27.83%	Serum Testosterone [1, 9]: 20.2 ± 4.9 ng/mL; Effect on serum testosterone concentration (in words) [1, 10]: prevented the reduction in the serum testosterone concentration; Male Sexual Behavior (Copulations in 5 minutes) [4, 9]: 9.2 ± 1.0 Copulations in 5 minutes; Effect on male sexual behavior (in words) [4, 10]: retention of male sexual behavior at the level of the placebo group

— patent publication US6670493B2, “Methods and compositions for treating diseases due to androgen deficiency with glucocorticoid receptor antagonist compounds and new compounds” (Jenapharm GmbH & Co. KG, priority 2001, dated 2003)
